In patent publication US20050281821A1, “Method and composition for angiogenesis inhibition” (priority 1999, published 2005):

Tests used:
MDA-MB-435 tumor cells = assay: Orthotopic MDA-MB-435 human breast tumor model in mice; assay type: in vivo, female nude mice
Method: The effect of antibodies D93 and H8 in an orthotopic human breast tumor model was evaluated. MDA-MB-435 tumor cells (0.4×10^6 cells/mouse) in 50 μl PBS were orthotopically implanted in the mammary fat pad of female nude mice (five to six weeks old). When tumors reached a mean volume of approximately 50-80 mm^3, mice were randomized (at least 10/group) and intravenous treatment with D93 and H8 at 1 μg (0.05 mg/kg) per dose, 10 μg (0.5 mg/kg), 100 μg (5 mg/kg) or 200 μg (10 mg/kg), or 100 μg control antibody DP28 in 100 μl PBS, or vehicle PBS 100 μl twice per week was initiated; in some studies, an untreated group was also evaluated.
Tumor sizes were measured every 7-20 days starting at the first day of treament and continued until day 50-80 post-treatment. Tumor length (L) and width (W) were measured with calipers and tumor volumes were calculated using the formula: (L×W^2)/2 where L was the length of the tumor or the largest diameter, and W was the width or shortest diameter. Animals were euthanized at the end of the study and final tumor measurements were recorded.
The effect of combination treatment of D93 with Taxol was evaluated for eight weeks in the orthotopic MDA-MB-435 human breast tumor model in mice. MDA-MB-435 tumor cells were implanted into female nude mice as described in Example 20. Animals were randomized into seven treatment groups (n=12-13/group) with mean tumor volume 78 mm^3. D93 was administered at 100 μg/dose (5 mg/kg) twice weekly. Taxol was administered intraperitoneally at 3 or 6 mg/kg q.w. A vehicle control group of animals received PBS twice weekly and HBSS once weekly. Another control group received DP28 control antibody, administered at 100 μg/dose, twice weekly. Treatments with D93 and Taxol, as well as controls, were initiated on the same day (Day 1).
Tumor sizes were measured every 7 days starting at the first day of treatment and continued until day 55 post-treatment. Measurements were recorded as (L×W^2)/2 where L is the length of the tumor or the largest diameter, and W is the width or shortest diameter. Animals were euthanized at the end of the study and the final measurements were recorded.
In a study similar to that described in Example 21, Taxol was administered intraperitoneally at 6 or 10 mg/kg q.w. Animals were treated for 51 days.

[1] = tested on: MX-1 human breast carcinoma cells; assay: Non-orthotopic MX-1 human breast tumor model; assay type: in vivo, SCID mice
Method: A study was performed in the staged subcutaneous (non-orthotopic) MX-1 breast tumor model. Female, 7 week-old, SCID mice were injected in the dorsal right flank with 0.75×10^7 MX-1 human breast carcinoma cells in 100 μl of PBS. Treatments were initiated when MX-1 tumors grew to a mean volume of 115 mm^3. The animals were randomly divided into 5 treatment groups, each having 6-7 animals per group. Animals were treated with D93 (i.v., 2×/week) and/or Taxol 100 μl volume (i.p. 2×/week), as outlined below. One control group of animals remained untreated, and another received PBS (vehicle) only. The animals were treated for 25 days.
Tumor size was measured every 7-20 days starting at first day-post randomization and continued until the end of the study. Measurements were recorded as (L×W^2)/2 where L is the length of the tumor or the largest diameter, and W is the width or shortest diameter. Animals were euthanized at the end of the study and final tumor measurements were recorded.

[2] = tested on: protease produced by HUVEC that unmasks the cryptic site in type-IV collagen; assay: Unmasking of HUIV26 cryptic site in collagen type-IV by HUVEC conditioned media; assay type: biochemical, human
Method: Microtiter plates were coated with extracellular matrix components, each at a concentration of 25 μg/ml. A). Mab HUIV26 was added at a concentration of 1 μg/ml, followed 1 hour later with goat anti-mouse peroxidase labeled IgG. Denatured collagen type-I and collagen type-IV were prepared by boiling for 15 minutes before coating the plates. All data were corrected for any non-specific binding of secondary antibody. Data bars represent the mean optical density (O.D.)±standard deviations from triplicate wells. B). Microtiter wells were coated with triple helical collagen type-IV at 25 μg/ml. Concentrated (20×) HUVEC conditioned media was added to the wells in the presence or absence of EDTA, aprotinin or both and allowed to incubate for 1, 6 and 24 hours. The plates were next washed, blocked and incubated with Mab HUIV26 or control antibody. All data were corrected for non-specific secondary antibody binding. Data bars represent the mean optical density (O.D.)±standard deviations from triplicate wells. The following abbreviations are used in the figure Coll-I, collagen type-I; Coll-IV, collagen type-IV.

[3] = Table IV, D93 or DP-28 100 μg i.v. 2×/week and/or Taxol 6 mg/kg i.p. 1×/week
[4] = Table IV, Taxol 3 mg/kg i.p. 1×/week alone or with D93 100 μg i.v. 2×/week
[5] = Table V, D93 or DP-28 100 μg i.v. 2×/week and/or Taxol 6 mg/kg i.p. 1×/week
[6] = Table V, Taxol 10 mg/kg i.p. 1×/week alone or with D93 100 μg i.v. 2×/week
[7] = Table VI, D93 100 μg i.v. 2×/week and/or Taxol 6 mg/kg i.p. 2×/week

CC(=O)O[C@H]1C(=O)[C@@]2(C)[C@H]([C@H](OC(=O)c3ccccc3)[C@]3(O)C[C@H](OC(=O)[C@H](O)[C@@H](NC(=O)c4ccccc4)c4ccccc4)C(C)=C1C3(C)C)[C@]1(OC(C)=O)CO[C@@H]1C[C@@H]2O [Taxol, paclitaxel]
inhibition of tumor volume compared to DP28 (MDA-MB-435 tumor cells; Example 21, D93 100 μg/dose twice per week and/or Taxol 6 mg/kg q.w.): 42%
inhibition of tumor growth compared to DP-28 (MDA-MB-435 tumor cells; Example 21, Taxol 3 mg/kg q.w. alone or plus D93 100 μg/dose twice per week): 6%
Tumor volume, Day 1 (MDA-MB-435 tumor cells; [3]): 78 mm^3
Tumor volume, Day 8 (MDA-MB-435 tumor cells; [3]): 203 mm^3
Tumor volume, Day 27 (MDA-MB-435 tumor cells; [3]): 315 mm^3
Tumor volume, Day 34 (MDA-MB-435 tumor cells; [3]): 399 mm^3
Tumor volume, Day 41 (MDA-MB-435 tumor cells; [3]): 530 mm^3
Tumor volume, Day 48 (MDA-MB-435 tumor cells; [3]): 688 mm^3
Tumor volume, Day 54 (MDA-MB-435 tumor cells; [3]): 793 mm^3
Tumor volume, Day 55 (MDA-MB-435 tumor cells; [3]): 787 mm^3
Tumor volume, Day 1 (MDA-MB-435 tumor cells; [4]): 78 mm^3
Tumor volume, Day 8 (MDA-MB-435 tumor cells; [4]): 257 mm^3
Tumor volume, Day 27 (MDA-MB-435 tumor cells; [4]): 361 mm^3
Tumor volume, Day 34 (MDA-MB-435 tumor cells; [4]): 476 mm^3
Tumor volume, Day 41 (MDA-MB-435 tumor cells; [4]): 604 mm^3
Tumor volume, Day 48 (MDA-MB-435 tumor cells; [4]): 815 mm^3
Tumor volume, Day 54 (MDA-MB-435 tumor cells; [4]): 1034 mm^3
Tumor volume, Day 55 (MDA-MB-435 tumor cells; [4]): 1275 mm^3
Tumor volume, Day 1 (MDA-MB-435 tumor cells; [5]): 58.55 mm^3
Tumor volume, Day 21 (MDA-MB-435 tumor cells; [5]): 210.6 mm^3
Tumor volume, Day 32 (MDA-MB-435 tumor cells; [5]): 392.04 mm^3
Tumor volume, Day 39 (MDA-MB-435 tumor cells; [5]): 559.9 mm^3
Tumor volume, Day 45 (MDA-MB-435 tumor cells; [5]): 771 mm^3
Tumor volume, Day 51 (MDA-MB-435 tumor cells; [5]): 866 mm^3
Tumor volume, Day 1 (MDA-MB-435 tumor cells; [6]): 58.6 mm^3
Tumor volume, Day 21 (MDA-MB-435 tumor cells; [6]): 196.5 mm^3
Tumor volume, Day 32 (MDA-MB-435 tumor cells; [6]): 361.56 mm^3
Tumor volume, Day 39 (MDA-MB-435 tumor cells; [6]): 487.05 mm^3
Tumor volume, Day 45 (MDA-MB-435 tumor cells; [6]): 672 mm^3
Tumor volume, Day 51 (MDA-MB-435 tumor cells; [6]): 820 mm^3
effect on tumor growth ([1]; FIG. 39, D93 100 μg and/or Taxol 6 mg/kg, 25 days): inhibit tumor growth
Tumor volume, Day 1 [1, 7]: 119 mm^3
Tumor volume, Day 5 [1, 7]: 224.19 mm^3
Tumor volume, Day 12 [1, 7]: 602 mm^3
Tumor volume, Day 19 [1, 7]: 761.89 mm^3
Tumor volume, Day 26 [1, 7]: 1196 mm^3

O=C(O)CN(CCN(CC(=O)O)CC(=O)O)CC(=O)O [EDTA]
effect on the HUVEC protease that unmasks the cryptic site in type-IV collagen ([2]; FIG. 11B): inhibited

aprotinin
block of Mab HUIV26 reactivity observed in the absence of protease inhibitor ([2]; 6 hour time point): 40%
block of Mab HUIV26 reactivity observed in the absence of protease inhibitor ([2]; 24 hour time point): 70%
effect on unmasking of cryptic site(s) in type-IV collagen ([2]; one hour of incubation with HUVEC conditioned media): little effect
